# Data: patent publication US10730887B2, “Compound containing tricyclic heteroaryl group” (Hangzhou Innogate Pharma Co., Ltd., priority 2016, dated 2020)
# Legend:
# Type in all cases: biochemical
# FLT3 = biological target: T1, FLT3 (Homo sapiens, UniProt P36888); test: FLT3 kinase activity inhibition, Caliper mobility shift assay
# T1 sequence (P36888 27-993): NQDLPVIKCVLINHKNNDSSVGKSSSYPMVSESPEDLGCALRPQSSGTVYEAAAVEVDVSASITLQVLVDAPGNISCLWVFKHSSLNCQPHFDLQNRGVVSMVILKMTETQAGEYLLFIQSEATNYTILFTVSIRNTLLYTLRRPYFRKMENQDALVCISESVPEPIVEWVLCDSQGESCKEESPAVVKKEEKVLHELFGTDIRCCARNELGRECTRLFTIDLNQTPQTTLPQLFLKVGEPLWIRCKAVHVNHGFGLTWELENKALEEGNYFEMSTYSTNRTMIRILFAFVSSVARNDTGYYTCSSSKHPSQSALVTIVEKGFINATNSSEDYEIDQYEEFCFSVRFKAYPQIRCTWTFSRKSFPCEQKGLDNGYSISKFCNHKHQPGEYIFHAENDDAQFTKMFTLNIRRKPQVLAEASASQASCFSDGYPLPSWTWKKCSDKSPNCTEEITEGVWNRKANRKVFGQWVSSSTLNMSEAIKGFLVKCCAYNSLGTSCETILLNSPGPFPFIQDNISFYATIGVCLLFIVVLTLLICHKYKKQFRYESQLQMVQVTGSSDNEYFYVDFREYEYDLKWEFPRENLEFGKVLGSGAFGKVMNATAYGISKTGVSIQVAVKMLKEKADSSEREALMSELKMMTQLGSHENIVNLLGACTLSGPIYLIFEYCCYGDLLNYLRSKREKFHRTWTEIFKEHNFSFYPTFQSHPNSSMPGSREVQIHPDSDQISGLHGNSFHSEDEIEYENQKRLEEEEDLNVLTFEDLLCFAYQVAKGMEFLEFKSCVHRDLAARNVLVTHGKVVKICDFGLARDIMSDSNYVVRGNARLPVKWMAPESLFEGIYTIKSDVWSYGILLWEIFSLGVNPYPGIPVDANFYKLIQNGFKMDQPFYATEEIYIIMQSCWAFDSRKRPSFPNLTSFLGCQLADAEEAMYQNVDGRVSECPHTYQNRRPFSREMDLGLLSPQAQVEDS
# Experimental: FLT3 protein kinase activity was measured using the Caliper mobility shift assay. The compound was dissolved in DMSO and diluted with a kinase buffer (50 mM HEPES, pH 7.5, 0.0015% Brij-35, 2 mM DTT), and 5 μL of a 5-fold final concentration of the compound (10% DMSO) was added to a 384-well plate. After adding 10 μL of 2.5-fold FLT3 enzyme solution, incubate for 10 minutes at room temperature, and then add 10 μL of a 2.5-fold substrate (FAM-labeled polypeptide and ATP) solution. After incubation at 28° C. for 60 minutes, the reaction was stopped by adding 25 μL of stop solution (100 mM HEPES, 0.015% Brij-35, 0.2% Coating Reagent #3, 50 mM EDTA, pH 7.5). Conversion rate data was read on a Caliper EZ Reader II (Caliper Life Sciences). The conversion rate was converted into inhibition rate data (% inhibition rate=(max−conversion rate)/(max−min)*100). Where max is the conversion of the DMSO control and min is the conversion of the enzyme-free control Curves were plotted with compound concentration and inhibition rate on the horizontal and vertical coordinates, and the curve was fitted using XLFit excel add-in version 4.3.1 software and IC50 was calculated.
# Axl = biological target: T2, Axl (Homo sapiens, UniProt P30530); test: Axl kinase activity inhibition, Caliper mobility shift assay
# T2 sequence (P30530 26-894): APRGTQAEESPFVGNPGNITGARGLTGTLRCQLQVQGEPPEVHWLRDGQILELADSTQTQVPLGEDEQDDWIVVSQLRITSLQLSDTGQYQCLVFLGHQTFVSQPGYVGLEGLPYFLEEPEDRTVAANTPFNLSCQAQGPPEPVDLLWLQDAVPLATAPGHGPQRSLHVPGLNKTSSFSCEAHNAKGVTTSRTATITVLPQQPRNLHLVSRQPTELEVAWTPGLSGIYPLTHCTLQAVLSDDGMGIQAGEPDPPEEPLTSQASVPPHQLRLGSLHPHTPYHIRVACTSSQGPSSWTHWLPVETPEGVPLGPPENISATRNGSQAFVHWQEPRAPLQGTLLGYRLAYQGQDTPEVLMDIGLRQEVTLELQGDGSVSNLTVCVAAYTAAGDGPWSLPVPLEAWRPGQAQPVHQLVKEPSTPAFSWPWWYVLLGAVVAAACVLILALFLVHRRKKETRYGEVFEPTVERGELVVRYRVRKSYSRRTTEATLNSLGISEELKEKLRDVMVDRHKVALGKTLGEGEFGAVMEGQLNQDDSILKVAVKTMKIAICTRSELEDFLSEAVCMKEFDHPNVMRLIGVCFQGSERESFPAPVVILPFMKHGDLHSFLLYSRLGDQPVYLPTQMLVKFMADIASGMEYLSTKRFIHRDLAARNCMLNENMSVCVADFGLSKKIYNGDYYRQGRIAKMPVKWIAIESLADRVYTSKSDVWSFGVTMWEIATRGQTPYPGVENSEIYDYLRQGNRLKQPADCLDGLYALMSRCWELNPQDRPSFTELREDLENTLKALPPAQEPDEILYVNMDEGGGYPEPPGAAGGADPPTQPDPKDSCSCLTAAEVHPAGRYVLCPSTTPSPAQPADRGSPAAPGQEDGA
# Experimental: Axl protein kinase activity was determined using the Caliper mobility shift assay. The compound was dissolved in DMSO and diluted with kinase buffer (50 mM HEPES, pH 7.5, 0.0015% Brij-35, 2 mM DTT), and 5 μL of 5 times the final concentration of the compound (10%) was added to the 384-well plate. DMSO). After adding 10 μL of a 2.5-fold Axl enzyme solution, incubate for 10 minutes at room temperature, and then add 10 μL of a 2.5-fold substrate (FAM-labeled polypeptide and ATP) solution. After incubation at 28° C. for 60 minutes, the reaction was stopped by the addition of […] stop solution (100 mM HEPES, 0.015% Brij-35, 0.2% Coating Reagent #3, 50 mM EDTA, pH 7.5). Conversion rate was read on a Caliper EZ Reader II (Caliper Life Sciences). The conversion rate was converted into inhibition rate (% inhibition rate=(max−conversion rate)/(max−min)*100). Where max is the conversion of the DMSO control and min is the conversion of the enzyme-free control. Curves were plotted with compound concentration and inhibition rate on the horizontal and vertical coordinates, and the curve was fitted using XLFit excel add-in version 4.3.1 software and IC50 was calculated.
# FAK = FAK (Homo sapiens, UniProt Q05397); test: FAK kinase activity inhibition, Latha screen analysis
# Experimental: FAK protein kinase activity was determined by Latha screen analysis. The compound was dissolved in DMSO and diluted with kinase buffer (25 mM HEPES, pH 7.5, 0.01 mM Triton, 10 mM MgCl2, 0.5 mM EGTA, 0.01% BRIJ-35, 2 mM DTT), 2.5 μL was added to the 384-well plate 4 times the final concentration of the compound (4% DMSO). After adding 5 μL of 2-fold FAK enzyme solution, incubate for 10 minutes at room temperature, and then add 2.5 μL of 4 times substrate (Fluorescein-polyGT and ATP) solution. After incubating for 30 minutes at 25° C., 10 μL of the detection solution (antibody of phosphorylation site 2 nM and EDTA 10 mM) was added to terminate the reaction. The data emitted at […] and emitted at 520 nm was read from Envision, and the luminescence reading data was copied from the Envision program, and the value of the luminescence reading was converted to the percent inhibition by a formula. The conversion rate was converted into inhibition rate data (% inhibition rate=(max−conversion rate)/(max−min)*100). “min” is the control fluorescence reading for the reaction without enzyme: “max” is the fluorescence reading of the sample with DMSO added as a control. Curves were plotted with compound concentration and inhibition rate on the horizontal and vertical coordinates, and the curve was fitted using XLFit excel add-in version 4.3.1 software and IC50 was calculated.
# Chain of FAK (Q05397 whole entry, species assumed): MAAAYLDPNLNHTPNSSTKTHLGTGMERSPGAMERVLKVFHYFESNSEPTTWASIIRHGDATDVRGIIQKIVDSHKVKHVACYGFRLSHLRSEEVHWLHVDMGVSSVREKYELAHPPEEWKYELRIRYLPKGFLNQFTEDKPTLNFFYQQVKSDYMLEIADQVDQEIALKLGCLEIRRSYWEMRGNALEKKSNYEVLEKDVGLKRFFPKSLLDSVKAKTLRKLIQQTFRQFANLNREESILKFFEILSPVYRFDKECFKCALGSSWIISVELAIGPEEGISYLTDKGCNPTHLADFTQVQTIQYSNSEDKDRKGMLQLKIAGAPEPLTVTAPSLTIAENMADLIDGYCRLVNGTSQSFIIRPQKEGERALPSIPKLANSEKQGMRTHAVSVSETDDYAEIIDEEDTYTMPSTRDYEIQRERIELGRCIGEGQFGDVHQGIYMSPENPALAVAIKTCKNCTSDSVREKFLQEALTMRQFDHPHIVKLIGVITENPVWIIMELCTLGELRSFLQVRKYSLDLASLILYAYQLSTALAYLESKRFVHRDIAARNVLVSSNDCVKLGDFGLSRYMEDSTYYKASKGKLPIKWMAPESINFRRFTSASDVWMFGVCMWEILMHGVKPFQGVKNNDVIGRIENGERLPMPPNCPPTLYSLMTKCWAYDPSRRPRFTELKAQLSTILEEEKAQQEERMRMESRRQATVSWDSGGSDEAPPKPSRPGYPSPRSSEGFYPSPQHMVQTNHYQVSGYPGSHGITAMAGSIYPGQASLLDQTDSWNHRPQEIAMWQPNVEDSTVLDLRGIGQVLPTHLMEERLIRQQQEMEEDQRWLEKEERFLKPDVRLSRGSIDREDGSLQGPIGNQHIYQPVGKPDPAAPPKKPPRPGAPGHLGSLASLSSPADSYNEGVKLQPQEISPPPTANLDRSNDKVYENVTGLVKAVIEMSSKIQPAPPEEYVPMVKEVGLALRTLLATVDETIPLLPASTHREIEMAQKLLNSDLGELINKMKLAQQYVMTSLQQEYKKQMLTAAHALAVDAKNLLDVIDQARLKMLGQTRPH
SMILES,IC50 (FLT3),IC50 (Axl),IC50 (FAK)
CCc1nc(C(N)=O)c(Nc2ccc3c(c2)OC[C@H]2CN(C4CCN(C)CC4)CCN32)nc1NC1CCOCC1 [Compound D6R],< 1 nM,< 10 nM,
CCc1nc(C(N)=O)c(Nc2ccc3c(c2)OC[C@H]2CN(C)CCN32)nc1NC1CCOCC1 [Compound D1R],< 1 nM,< 10 nM,
CNC(=O)c1ccccc1Nc1cc(Nc2ccc3c(c2)OC[C@@H]2CN(C)CCN32)ncc1C(F)(F)F [Compound E1S],,,< 1 nM
CNC(=O)c1ccccc1Nc1cc(Nc2ccc3c(c2)OC[C@H]2CN(C)CCN32)ncc1C(F)(F)F [Compound E1R],,,< 1 nM
CNC(=O)c1ccccc1Nc1cc(Nc2ccc3c(c2)OCC2COCCN32)ncc1C(F)(F)F (stereo not drawn) [Compound E1],,,< 1 nM
CCc1nc(C(N)=O)c(Nc2ccc3c(c2)OC[C@@H]2CN(C)CCN32)nc1NC1CCOCC1 [Compound D1S],< 1 nM,< 10 nM,
